Kd data for 1 compound are collected here from patent publication US20220315631A1, “STAPLED BETA-CATENIN LIGANDS” (Ohio State Innovation Foundation, priority 2019, published 2022).

This assay concerns the target T1, β-catenin (Homo sapiens, UniProt P35222).
T1 construct: cells harboring plasmid pGEX-β-catenin(133-665)52 were grown in LB medium; made in house; host or cells: E. coli BL21 (DE3)
T1 sequence (P35222 133-665): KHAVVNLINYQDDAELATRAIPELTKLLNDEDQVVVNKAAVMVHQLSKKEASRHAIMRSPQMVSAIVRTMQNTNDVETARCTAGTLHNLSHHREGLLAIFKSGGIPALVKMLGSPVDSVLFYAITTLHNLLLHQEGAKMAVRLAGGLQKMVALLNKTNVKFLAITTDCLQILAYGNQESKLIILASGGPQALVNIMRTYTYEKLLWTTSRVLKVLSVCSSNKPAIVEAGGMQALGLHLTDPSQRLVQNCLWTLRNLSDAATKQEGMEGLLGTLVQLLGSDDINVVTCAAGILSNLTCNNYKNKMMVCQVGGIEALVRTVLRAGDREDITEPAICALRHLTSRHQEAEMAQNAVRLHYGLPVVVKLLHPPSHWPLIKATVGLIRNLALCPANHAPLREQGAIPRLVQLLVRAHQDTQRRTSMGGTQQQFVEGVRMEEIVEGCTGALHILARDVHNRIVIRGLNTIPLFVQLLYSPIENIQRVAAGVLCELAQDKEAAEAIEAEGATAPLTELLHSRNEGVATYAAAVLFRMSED
As to the kind of experiment: FP direct binding of FAM-labeled peptide 1 to GST-β-catenin. Particulars: 10 nM peptide 1 with serial dilutions of GST-β-catenin, read-out: KD or IC50. The method, then:
Protein-Ligand Binding Assays. Peptide 1: Binding affinity was determined using FP. Peptide 1 (10 nM) was added to serial dilutions of GST-β-catenin in 20 mM Tris, 300 mM NaCl, pH 8.8, 0.01% Triton-X100 as reported previously. 34 After 1 h, aliquots were transferred from the reaction mixtures into black-on-black 384-well non-binding plates (Greiner) and FP was measured using a Tecan Infinite M1000 Pro plate reader. The KD value was calculated using KaleidaGraph v. 3.6 using the equation below.
Protein Purification. For β-catenin, E. coli BL21 (DE3) cells harboring plasmid pGEX-β-catenin(133-665)52 were grown in LB medium supplemented with 50 mg/L ampicillin at 37° C. to an OD600 of 0.6 before induction with 0.2 mM IPTG overnight at 30° C. Cells were harvested by centrifugation and lysed in lysis buffer (20 mM Tris, pH 8.0, 150 mM NaCl, 2 mM DTT, 1% Triton-X100, 200 mM EDTA, 10 mg/mL PMSF, and 0.2 mg/mL lysozyme) on ice for 20 min, followed by sonication (8 s off, 2 s on, 1 min total, performed twice at 70% amplitude). The homogenate was centrifuged (13,000 g for 30 min at 4° C. and the clear supernatant was loaded onto an equilibrated glutathione-agarose column. After exhaustive washing with wash buffer (20 mM Tris, pH 7.4, 150 mM NaCl, 2 mM DTT), the bound GST-β-catenin was eluted with wash buffer supplemented with 10 mM glutathione, concentrated, and stored at −80° C. in 30% glycerol.

Starred links: 1 amine or outer side, 2 acyl side, 3 side chain; linkers in the order of their positions; H or OH if unused. Positions of bridges follow the written chain, without caps; N, C: chain ends. Residues, ends and D or L forms follow the SMILES beside them. *: point of attachment. 5FAM = O=C1OC2(c3ccc(O)cc3Oc3cc(O)ccc32)c2ccc(C(=O)*)cc21; mXylylene = c1cc(C[*:1])cc(C[*:2])c1

One may read the Kd as the equilibrium constant for the complex coming apart. Consider `CC[C@H](C)[C@@H]1NC(=O)[C@@H](NC(=O)[C@H](CCC(=O)O)NC(=O)[C@@H]2CCCN2C(=O)[C@H](Cc2ccc(O)cc2)NC(=O)CNC(=O)CNC(=O)c2ccc3c(c2)C(=O)OC32c3ccc(O)cc3Oc3cc(O)ccc32)CSCc2cccc(c2)CSC[C@@H](C(=O)N[C@@H](Cc2c[nH]cn2)C(=O)N[C@@H](CC(C)C)C(=O)N[C@@H](CCC(N)=O)C(=O)N[C@@H](CCCNC(=N)N)C(=O)N[C@H](C(=O)N[C@H](C(=O)N[C@@H](CC(C)C)C(N)=O)[C@@H](C)CC)C(C)C)NC(=O)[C@H](CC(=O)O)NC(=O)[C@H](CC(C)C)NC1=O` [peptide 1] (5FAM-GGYPECILDCHLQRVIL-NH2; linker 6-10 via mXylylene), for which the Kd worked out at 18 nM.
